In patent US20210283091A1, “DECREASING IMMUNE ACTIVITY THROUGH MODULATION OF POSTCELLULAR SIGNALING FACTORS” (FLAGSHIP PIONEERING INNOVATIONS V, INC., priority 2018, published 2021):
“Also recorded” adds a separate entry of the source.

Columns and labels:
NFKB [1] = assay: NFKB reporter activity in THP1-Dual monocytes co-cultured with treated Caki-1 cells; format: cell-based, human; conditions: Caki-1 cells treated 24 hours, then co-culture with THP1-Dual cells 24 hours
Experimental: Caki-1 renal cell carcinoma cells were treated with either control (DMSO) or various doses of Erastin, for 24 hours prior to co-culture with THP1-Dual cells for an additional 24 hours. Erastin was purchased from Selleckchem (Houston, Tex.) and dissolved in DMSO. Subsequently, the THP1 supernatants were assessed for NFKB or IRF reporter activity. Caki-1 cells were acquired from ATCC and THP1-Dual cells acquired from InvivoGen (San Diego, Calif.). Both cell types were cultured in 96-well plates for the duration of the assay. 7.500 Caki-1 cells were plated 24 hours prior to dosing with Erastin, with a final DMSO concentration of 0.5%. 24 hours post-treatment, THP1-Dual cells (25,000 cells/well) were added to the Caki-1 cells. 24 hours later, 30 μl of supernatant was mixed with either 200 μl QuantiBlue (InvivoGen) or 50 μl QuantiLuc and absorbance or luminescence was recorded on a Molecular Devices plate reader. Caki-1 renal cell carcinoma cells were treated with either control (DMSO) or various doses of RSL3, for 24 hours prior to co-culture with THP1-Dual cells for an additional 24 hours. RSL3 was purchased from Selleckchem and dissolved in DMSO. Subsequently, the THP1 supernatants were assessed for NFKB or IRF reporter activity. Caki-1 cells were acquired from ATCC and THP1-Dual cells acquired from InvivoGen (San Diego, Calif.). Both cell types were cultured in 96-well plates for the duration of the assay. 7.500 Caki-1 cells were plated 24 hours prior to dosing with […], with a final DMSO concentration of 0.5%. 24 hours post-treatment, THP1-Dual cells (25,000 cells/well) were added to the Caki-1 cells. 24 hours later, 30 μl of supernatant was mixed with either 200 μl QuantiBlue (InvivoGen, San Diego, Calif.) or 50 μl QuantiFuc and absorbance or luminescence was recorded on a Molecular Devices plate reader. […] Subsequently, the THP1 supernatant was assessed for NFKB reporter activity. […]

NFKB [2] = assay: NFKB reporter activity in THP1-Dual monocytes co-cultured with treated Jurkat cells; format: cell-based, human; conditions: Jurkat cells treated 24 hours, then co-culture with THP1-Dual cells 24 hours
Experimental: (§1) Jurkat T cell leukemia cells were treated with either control (DMSO) or various doses of RSL3, for 24 hours prior to co-culture with THP1-Dual cells for an additional 24 hours. RSL3 was purchased from Selleckchem (Houston, Tex.) and dissolved in DMSO. Subsequently, the THP1 supernatants were assessed for NFKB or IRF reporter activity. Jurkat cells were acquired from ATCC and THP1-Dual cells acquired from InvivoGen (San Diego, Calif.). Both cell types were cultured in 96-well plates for the duration of the assay. 100,000 Jurkat cells were plated 24 hours prior to dosing with RSL3, with a final DMSO concentration of 0.5%. 24 hours post-treatment, THP1-Dual cells (25,000 cells/well) were added to the Jurkat cells. 24 hours later, 30 μl of supernatant was mixed with either 200 μl QuantiBlue (InvivoGen, San Diego, Calif.) or 50 μl QuantiLuc and absorbance or luminescence was recorded on a Molecular Devices plate reader.

[3] = test system: A20 B-cell leukemia cells; assay: Viability of A20 cells treated with GPX4 inhibitor, with or without Ferrostatin-1; format: cell-based; conditions: various doses, 24 hours treatment
NFKB [4] = assay: NFKB reporter activity in THP1-Dual monocytes co-cultured with treated A20 cells; format: cell-based, human; conditions: A20 cells treated 24 hours, then co-culture with THP1-Dual cells 24 hours
Experimental: A20 B-cell leukemia cells were treated with either control (DMSO) or various doses of RSL3, for 24 hours prior to co-culture with THP1-Dual cells for an additional 24 hours. RSL3 was purchased from Selleckchem (Houston, Tex.) and dissolved in DMSO. Subsequently, the THP1 supernatants were assessed for NFKB or IRF reporter activity.
A20 cells were acquired from ATCC and THP1-Dual cells acquired from InvivoGen (San Diego, Calif.). Both cell types were cultured in 96-well plates for the duration of the assay. 50,000 A20 cells were plated 24 hours prior to dosing with RSL3, with a final DMSO concentration of 0.5%. 24 hours post-treatment, THP1-Dual cells (25,000 cells/well) were added to the A20 cells. 24 hours later, 30 μl of supernatant was mixed with either 200 μl QuantiBlue (InvivoGen, San Diego, Calif.) or 50 μl QuantiLuc and absorbance or luminescence was recorded on a Molecular Devices plate reader.
A20 lymphoma cells were treated with various doses (e.g. 0.002, 0.005, 0.014, 0.041, 0.123, 0.370, 1.111, 3.333 and 10 μM) of a GPX4 inhibitor (RSL3, ML162 or ML210) in the presence or absence of 1 μM Ferrostatin-1 for 24 hours. ML162 was purchased from Cayman Chemical Company Inc and resuspended in DMSO. ML210 was purchased from Sigma-Aldrich and resuspended in DMSO. A20 lymphoma cells were also treated with DMSO as a negative control. After treatment with DMSO or a GPX4 inhibitor for 24 hours, the A20 lymphoma cells were co-cultured with THP1-Dual cells for an additional 24 hours. Subsequently, the THP1 supernatant was assessed for NFKB reporter activity. A20 cells were acquired from ATCC and THP1-Dual cells were acquired from InvivoGen (San Diego, Calif.). Both cell types were cultured in 96-well plates for the duration of the assay.

[5] = test system: Caki-1 renal cell carcinoma cells; assay: Viability of Caki-1 renal cell carcinoma cells treated with ferroptosis inducer, with or without Ferrostatin-1; format: cell-based; conditions: various doses, 24 hours treatment
[6] = test system: Jurkat T cell leukemia cells; assay: Viability of Jurkat T cell leukemia cells treated with RSL3; format: cell-based; conditions: various doses, 24 hours treatment
IRF = IRF reporter activity in THP1-Dual monocytes co-cultured with treated A20 cells; format: cell-based, human; conditions: A20 cells treated 24 hours, then co-culture with THP1-Dual cells 24 hours
Experimental: as §1, with “A20 B-cell” for “Jurkat T cell”, “A20” for “Jurkat”, “50,000 A20” for “100,000 Jurkat”

Q: What does the source list for COC(=O)c1ccc([C@H]2c3[nH]c4ccccc4c3C[C@H](C(=O)OC)N2C(=O)CCl)cc1 [RSL3]?
A: NFKB signaling in THP1 monocytes (NFKB [1]): elicited NFKB signaling; also recorded: increased NFKB activity in THP1 cells in a dose dependent manner; NFKB signaling in THP1 monocytes (NFKB [2]): elicited NFKB signaling; viability of A20 cells [3]: negatively affected the viability; also recorded: decreased viability of the cells in a dose dependent manner; NFKB signaling in THP1 monocytes (NFKB [4]): elicited NFKB; also recorded: increased NFKB activity in THP1 cells in a dose dependent manner; viability of Caki-1 cells [5]: negatively affected the viability; also recorded: decreased viability of the cells in a dose dependent manner; viability of Jurkat T cell leukemia cells [6]: negatively affected the viability; IRF signaling in THP1 monocytes (IRF): elicited
